Assay results reported in US20230123334A1, “AMINO LIPID COMPOUND, PREPARATION METHOD THEREFOR, AND APPLICATION THEREOF” (SHENZHEN SHENXIN BIOTECHNOLOGY CO., LTD., priority 2020, published 2023).

Legend:
[1] = Particle size and PDI of lipid nanoparticles (Nano-ZSZEN3600, Malvern); format: physicochemical; settings: LNPs; for Particle size (nm): Fluc mRNA
Experimental: (§1) The amino lipid compound of the invention was mixed with DOPE, cholesterol and PEG2000-DMG in a molar ratio of 45:10:42.5:2.5, and dissolved in absolute ethanol such that the molar concentration of the amino lipid compound was 0.001-0.01 mmol/L. By using a microinjection pump, the resultant ethanol solution and a sodium acetate solution (50 mM, pH=4.0) in which luciferase mRNA (Fluc mRNA, TriLink) was dissolved were mixed in a volume ratio of 1:3 in a microchannel chip to prepare a crude solution of lipid nanoparticles, which was then dialyzed in 1×PBS at a controlled temperature of 4° C. for 6 h using a dialysis box (Fisher, MWCO 20,000) and filtered through a 0.22 μm microporous filter membrane before use. The mass ratio of the amino lipid compound to Fluc mRNA was about 10:1. The resultant solution of lipid nanoparticles (LNPs) was administered to the tested animals by subcutaneous administration.
Characterization of particle size: the particle size and PDI of the prepared lipid nanoparticles were determined by Nano-ZSZEN3600 (Malvern). 40 uL of LNP solution was taken for particle size measurement with circulation for three times, 30 s for each circulation.
(§2) The preparation method was the same as Formulation method 1, except that amino lipid compound, DSPC, cholesterol and PEG2000-DMG were used in a molar ratio of 50:10:38.5: 1.5. The resultant solution of lipid nanoparticles (LNPs) was administered to the tested animals by tail vein and intramuscular injection.

[2] = Encapsulation rate of LNP RNA (Qubit RNA HS Assay kit); format: physicochemical; settings: LNPs
Experimental: as §1
Detection of encapsulation rate: the concentration of LNP RNA was detected by Qubit® RNA HS Assay kit. The theoretical RNA concentration was given by the total amount of RNA input divided by the total volume of the final solution.
as §2

BALB/c mice = assay: In vivo delivery of luciferase mRNA (Fluc mRNA) by lipid nanoparticles, in vivo imaging; settings: 0.5 mg/kg Fluc mRNA, after 12 hours
Experimental: as §1, §2
Animal Preparation: 6-week aged female BALB/c mice weighed about 20 g were selected and fed in a SPF-grade feeding room. Animal tests were conducted strictly according to the guidelines of national health institutions and the requirements of animal ethics.
In vivo delivery: 9 mice were assigned randomly to each group, and the lipid nanoparticle solution was injected by three routes of administration, i.e., subcutaneous, intramuscular and tail vein injection at a dosage of 0.5 mg/kg Fluc mRNA (3 mice for each route of administration). After 12 hours, 200 μL of 10 mg/mL potassium salt of […] (PerkinElmer) was injected into each mouse through the tail vein. After 10 min, the mice were placed under an in vivo imaging system (IVIS-200, Xenogen) to observe the total fluorescence intensity of each mouse and take photographs for record. The expression intensity of Fluc mRNA delivered by representative amino lipid compounds through the three routes of administration are shown in Table 5-7. DLin-MC3 was used as control.

HEK293 cells [3] = assay: Preliminary screening as mRNA vectors, EGFP mRNA transfection of HEK293 cells; format: cell-based; settings: HEK293 cells, 96-well plates, EGFP mRNA 50 ng per well; percentage of GFP fluorescent cells relative to total number of cells (Hoechst)
Method in brief: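 HEK293 cells in DMEM plus 10% FBS transfected in 96-well format with 50 ng EGFP mRNA per well; Lipofectamine2000 served as positive control. Read-out is the percentage of GFP-fluorescent cells among total cells, counted by Hoechst nuclear stain.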

HEK293 cells [4] = assay: Preliminary screening as DNA vectors, GFP transfection of HEK293 cells; format: cell-based; settings: HEK293 cells; lipid/DOPE liposome with 75 ng plasmid DNA (psin-EGFP-IRES-Puro); number of cells expressing GFP divided by total number of nuclei (Hoechst)
Method in brief: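 HEK293 cells in DMEM/10% FBS transfected with 75 ng EGFP plasmid per well complexed with amino lipid/DOPE liposomes in pH 5.6 sodium acetate. Hoechst nuclear stain added 20-24 h post-transfection, then cells cultured another 20-24 h. Confocal imaging gives GFP-positive cells as % of total nuclei.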

cardiomyocytes [5] = assay: Screening as mRNA vectors in cardiomyocytes; format: cell-based; settings: 50 ng EGFP mRNA per well
Method in brief: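 Cardiomyocytes differentiated from hESC, in DMEM with 10% FBS, were transfected with 50 ng EGFP mRNA per well. The read-out was GFP-positive cells as a percentage of Hoechst-stained nuclei, with Lipofectamine Stem as positive control.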

MCF7 cells [6] = assay: Transfection of MCF7 cell line, mRNA vectors; format: cell-based; settings: 50 ng EGFP mRNA per well
Method in brief: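 Efficiency was scored as the fraction of GFP-fluorescent cells over all Hoechst-counted cells after delivery of 50 ng EGFP mRNA per well. Cells were MCF7 grown in serum-supplemented DMEM, and Lipofectamine2000 served as reference.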

MCF7 cells [7] = assay: Transfection of MCF7 cell line, DNA vectors; format: cell-based; parameters: concentration or dose not given beside the values; settings: plasmid DNA, GFP cells / total cells
Method in brief: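 Read-out: GFP-positive cells as % of all Hoechst-stained nuclei after 96-well transfection of MCF7 cells grown in serum-supplemented DMEM. Positive control was Lipofectamine2000, used per manufacturer's protocol.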

Hela cells [8] = assay: Transfection of Hela cell line, mRNA vectors; format: cell-based; settings: 50 ng EGFP mRNA per well
Method in brief: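 Transfection efficiency was scored as GFP-fluorescent cells over Hoechst-stained total nuclei, with Lipofectamine2000 as reference reagent. Each well of HeLa cells, grown in DMEM plus 10% FBS, received 50 ng EGFP mRNA.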

cardiomyocytes [9] = assay: Screening as DNA vectors in cardiomyocytes; format: cell-based; parameters: concentration or dose not given beside the values; settings: method as Example 4
Method in brief: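 hESC-derived cardiomyocytes in DMEM with 10% FBS were transfected with a GFP DNA vector; Lipofectamine Stem served as positive control. Read-out: percentage of GFP-positive cells relative to total cells counted by Hoechst nuclear stain.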

Hela cells [10] = assay: Transfection of Hela cell line, DNA vectors; format: cell-based; settings: 75 ng plasmid DNA, GFP cells / total cells
Method in brief: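 Amino lipid/DOPE liposomes in sodium acetate pH 5.6 were complexed with 75 ng psin-EGFP-IRES-Puro plasmid for 30 min at room temperature, then mixed with 3-5×10^4 Hela cells in DMEM/10% FBS at 37° C. Hoechst stain after 20-24 h, imaging after a further 20-24 h. Efficiency = GFP-positive cells / total nuclei.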

[11] = test system: embryonic stem cells (hESC2); assay: Screening as DNA vectors in embryonic stem cells, flow cytometry; format: cell-based; settings: 75 ng plasmid DNA, 48 hours after transfection, flow cytometer
Method in brief: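 hESC2 cells in mTeSR1 on matrigel transfected with 75 ng pSin-EGFP-IRES-Puro complexed with amino lipid/DOPE liposomes formed in sodium acetate pH 5.6; 37 °C, 5% CO2. After 48 h, GFP-positive cells counted by flow cytometry (≥2000 cells), efficiency also expressed relative to Lipofectamine Stem.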

[12] = test system: embryonic stem cells (hESC2); assay: Screening as mRNA vectors in embryonic stem cells; format: cell-based; settings: 50 ng EGFP mRNA per well
Method in brief: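 EGFP mRNA (50 ng per well) transfected into hESC2 cells grown in mTeSR1; Lipofectamine Stem served as positive control. Read-out: GFP-fluorescent cells as percentage of total cells.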

[13] = Formulation Method 1 (amino lipid:DOPE:cholesterol:PEG2000-DMG 45:10:42.5:2.5)
[14] = Formulation method 2 (amino lipid:DSPC:cholesterol:PEG2000-DMG 50:10:38.5:1.5)

| SMILES | PDI ([1]; Formulation Method 1) | Particle size (nm) [1, 13] | PDI ([1]; Formulation method 2) | Particle size (nm) [1, 14] | Encapsulation rate ([2]; Formulation Method 1) | Encapsulation rate ([2]; Formulation method 2) | Fluorescence intensity (expression intensity of Fluc mRNA) (BALB/c mice; intramuscular administration) | Fluorescence intensity (expression intensity of Fluc mRNA) (BALB/c mice; subcutaneous administration) | Fluorescence intensity (expression intensity of Fluc mRNA) (BALB/c mice; tail vein administration) | Absolute mRNA transfection efficiency in HEK293 cells (HEK293 cells [3]) | Absolute DNA transfection efficiency in HEK293 cells (HEK293 cells [4]) | Absolute mRNA transfection efficiency in cardiomyocytes (cardiomyocytes [5]) | Absolute mRNA transfection efficiency in MCF7 cells (MCF7 cells [6]) | Absolute DNA transfection efficiency in MCF7 cells (MCF7 cells [7]) | Absolute mRNA transfection efficiency in Hela cells (Hela cells [8]) | Absolute DNA transfection efficiency in cardiomyocytes (cardiomyocytes [9]) | Absolute DNA transfection efficiency in Hela cells (Hela cells [10]) | Absolute DNA transfection efficiency in embryonic stem cells [11] | Absolute mRNA transfection efficiency in embryonic stem cells [12] |
| --- | --- | --- | --- | --- | --- | --- | --- | --- | --- | --- | --- | --- | --- | --- | --- | --- | --- | --- | --- |
| CCCCCCCCCCCCCCCCSc1nc(NCCCN2CCN(C)CC2)nc(SCCCCCCCC)n1 [Compound S8S16D9] | 0.01 | 96 ± 5 nm | 0.02 | 115 ± 5 nm | 98.7% | 99.4% | 8.2E+06 | 4.2E+06 | 6.5E+06 | 1.5% | 6.7% | – | – | – | – | – | – | – | – |
| CCCCCCCCCCCCCCCSc1nc(NCC2CCN(C)CC2)nc(SCCCCCCCCC)n1 [Compound S9S15D10] | – | – | – | – | – | – | – | – | – | 94.8% | 56.1% | 4.3% | 49.4% | 58.8% | 28.7% | 24.8% | 28.7% | 16.8% | 23.0% |
| CCCCCCCCCCCCCCCCSc1nc(NCCN2CCN(C)CC2)nc(SCCCCCCCCC)n1 [Compound S9S16D5] | 0.04 | 152 ± 5 nm | 0.05 | 130 ± 5 nm | 99.1% | 99.6% | 5.2E+06 | 4.2E+07 | 7.5E+06 | 47.8% | 23.5% | – | 32.0% | 26.6% | 11.7% | – | 11.7% | – | – |
| CCCCCCCCCCCCCCCCSc1nc(NCC2CCN(C)CC2)nc(SCCCCCCCCCC)n1 [Compound S10S16D10] | 0.03 | 136 ± 5 nm | 0.04 | 125 ± 5 nm | 99.5% | 99.2% | 3.2E+06 | 4.7E+07 | 2.9E+06 | 47.4% | 79.4% | – | – | – | – | – | – | – | – |
| CCCCCCCCCCCCSc1nc(NCCCN2CCOCC2)nc(SCCCCCCCCCCC)n1 [Compound S11S12D8] | 0.02 | 80 ± 5 nm | 0.01 | 90 ± 5 nm | 98.3% | 98.9% | 4.7E+06 | 1.1E+07 | 3.8E+06 | 6.7% | 10.7% | – | – | – | – | – | – | – | – |
| CCCCCCCCCCCCCNc1nc(NCCCN(C)C)nc(SCCCCCCCCCCCC)n1 [Compound S12N13D6] | 0.05 | 89 ± 5 nm | 0.04 | 96 ± 5 nm | 99.0% | 99.2% | 1.2E+06 | 8.6E+06 | 3.9E+06 | – | – | – | – | – | – | – | – | – | – |
| CCCCCCCCCCCCCCCSc1nc(NCCCCCCCCCCC)nc(NCCN2CCN(C)CC2)n1 [Compound S15N11D5] | 0.02 | 79 ± 5 nm | 0.01 | 95 ± 5 nm | 99.2% | 98.8% | 3.7E+06 | 1.9E+08 | 3.7E+06 | – | – | – | – | – | – | – | – | – | – |
| CCCCCCCCCCCCCCCCSc1nc(NCCCCCCCC)nc(NCC2CCN(C)CC2)n1 [Compound S16N8D10] | 0.04 | 90 ± 5 nm | 0.03 | 120 ± 5 nm | 97.2% | 98.6% | 3.9E+06 | 3.7E+08 | 3.2E+06 | – | – | – | – | – | – | – | – | – | – |
| CCCCCCCCCCCCCCCCSc1nc(NCCCCCCCCC)nc(NCCN2CCCC2)n1 [Compound S16N9D3] | 0.08 | 87 ± 4 nm | 0.06 | 127 ± 5 nm | 98.9% | 99.1% | 4.3E+06 | 2.7E+07 | 5.3E+06 | – | – | – | – | – | – | – | – | – | – |
| CCCCC/C=C\C/C=C\CCCCCCCCC(CCCCCCCC/C=C\C/C=C\CCCCC)OC(=O)CCCN(C)C [DLin-MC3, reference compound] | – | – | – | – | – | – | 2.7E+07 | 3.1E+06 | 2.7E+07 | – | – | – | – | – | – | – | – | – | – |
